In ChEMBL document CHEMBL5233266, “β-Carboline as a Privileged Scaffold for Multitarget Strategies in Alzheimer's Disease Therapy” (J Med Chem, 2021):
Values joined by “and” are separate entries in the source; they are usually repeats but may differ in a detail not shown here. Identical values can stand only once.

Legend:
Acetylcholinesterase [1] = target: T1, Acetylcholinesterase (Homo sapiens, UniProt P22303); assay: Inhibition of AChE (unknown origin) using acetylthiocholine iodide as substrate incubated for 20 mins followed by substrate addition by Ellman's method
T1 sequence (P22303 whole entry): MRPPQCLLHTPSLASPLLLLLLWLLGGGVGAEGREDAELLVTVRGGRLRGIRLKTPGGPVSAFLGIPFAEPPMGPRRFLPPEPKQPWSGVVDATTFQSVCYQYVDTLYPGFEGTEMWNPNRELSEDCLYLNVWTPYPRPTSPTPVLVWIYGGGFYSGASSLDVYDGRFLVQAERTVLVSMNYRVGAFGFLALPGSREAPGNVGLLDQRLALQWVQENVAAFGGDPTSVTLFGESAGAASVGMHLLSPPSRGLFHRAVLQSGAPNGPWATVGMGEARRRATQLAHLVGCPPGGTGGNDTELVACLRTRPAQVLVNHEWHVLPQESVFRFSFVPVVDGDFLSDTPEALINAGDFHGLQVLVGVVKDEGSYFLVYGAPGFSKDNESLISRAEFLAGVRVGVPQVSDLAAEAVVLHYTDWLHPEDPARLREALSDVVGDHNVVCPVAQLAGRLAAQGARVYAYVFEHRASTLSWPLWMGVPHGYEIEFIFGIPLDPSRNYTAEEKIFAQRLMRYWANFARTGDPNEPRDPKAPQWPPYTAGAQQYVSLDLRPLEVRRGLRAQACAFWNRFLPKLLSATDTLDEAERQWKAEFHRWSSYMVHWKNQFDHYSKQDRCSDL

[2] = target: GABA-A receptor; anion channel; assay: Inhibition of GABAA receptor (unknown origin); format: protein-complex assay, Homo sapiens
Cholinesterase [3] = target: T2, Cholinesterase (Homo sapiens, UniProt P06276); assay: Inhibition of BuChE (unknown origin) using acetylthiocholine iodide as substrate incubated for 20 mins followed by substrate addition by Ellman's method
T2 sequence (P06276 whole entry): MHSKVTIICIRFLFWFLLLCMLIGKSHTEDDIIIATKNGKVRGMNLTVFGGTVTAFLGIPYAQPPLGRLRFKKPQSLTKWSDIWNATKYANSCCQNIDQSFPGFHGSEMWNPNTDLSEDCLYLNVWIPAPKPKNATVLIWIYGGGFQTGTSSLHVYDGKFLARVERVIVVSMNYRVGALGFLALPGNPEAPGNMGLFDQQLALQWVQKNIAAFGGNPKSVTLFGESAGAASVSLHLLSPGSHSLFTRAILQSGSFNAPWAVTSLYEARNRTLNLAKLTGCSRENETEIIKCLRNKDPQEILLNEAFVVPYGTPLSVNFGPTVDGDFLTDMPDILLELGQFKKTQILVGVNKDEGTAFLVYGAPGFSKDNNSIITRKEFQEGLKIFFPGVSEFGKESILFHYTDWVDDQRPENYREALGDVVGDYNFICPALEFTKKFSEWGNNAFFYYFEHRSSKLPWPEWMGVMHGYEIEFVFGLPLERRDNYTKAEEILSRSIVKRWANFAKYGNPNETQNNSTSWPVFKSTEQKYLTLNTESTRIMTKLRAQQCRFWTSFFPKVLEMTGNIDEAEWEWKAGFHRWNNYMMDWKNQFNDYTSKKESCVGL

[4] = target: 5-hydroxytryptamine receptor 2B (Rattus norvegicus, UniProt P30994); assay: Displacement of [3H]-ketanserin from rat 5-HT2B expressed in mouse NIH/3T3 cells assessed as inhibition constant by Cheng-Prusoff equation analysis; format: cell-based
5-hydroxytryptamine receptor 2B (Rattus norvegicus, UniProt P30994), sequence (P30994 whole entry): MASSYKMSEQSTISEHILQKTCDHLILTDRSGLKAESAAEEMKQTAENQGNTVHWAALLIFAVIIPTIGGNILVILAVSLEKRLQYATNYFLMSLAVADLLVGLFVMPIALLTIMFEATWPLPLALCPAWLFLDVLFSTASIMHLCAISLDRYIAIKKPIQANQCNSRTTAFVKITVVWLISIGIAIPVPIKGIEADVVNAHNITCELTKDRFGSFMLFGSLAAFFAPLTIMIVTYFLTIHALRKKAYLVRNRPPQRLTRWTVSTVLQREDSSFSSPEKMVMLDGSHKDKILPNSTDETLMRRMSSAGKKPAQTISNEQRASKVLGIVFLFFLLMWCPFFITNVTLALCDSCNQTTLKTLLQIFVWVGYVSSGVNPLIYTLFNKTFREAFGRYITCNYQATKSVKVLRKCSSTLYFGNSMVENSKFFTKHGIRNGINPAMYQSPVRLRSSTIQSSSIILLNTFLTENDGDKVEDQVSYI

[5] = target: 5-hydroxytryptamine receptor 2B (Homo sapiens, UniProt P41595); assay: Binding affinity to 5-HT2B (unknown origin) assessed as equilibrium binding constant
5-hydroxytryptamine receptor 2B (Homo sapiens, UniProt P41595), sequence (P41595 whole entry): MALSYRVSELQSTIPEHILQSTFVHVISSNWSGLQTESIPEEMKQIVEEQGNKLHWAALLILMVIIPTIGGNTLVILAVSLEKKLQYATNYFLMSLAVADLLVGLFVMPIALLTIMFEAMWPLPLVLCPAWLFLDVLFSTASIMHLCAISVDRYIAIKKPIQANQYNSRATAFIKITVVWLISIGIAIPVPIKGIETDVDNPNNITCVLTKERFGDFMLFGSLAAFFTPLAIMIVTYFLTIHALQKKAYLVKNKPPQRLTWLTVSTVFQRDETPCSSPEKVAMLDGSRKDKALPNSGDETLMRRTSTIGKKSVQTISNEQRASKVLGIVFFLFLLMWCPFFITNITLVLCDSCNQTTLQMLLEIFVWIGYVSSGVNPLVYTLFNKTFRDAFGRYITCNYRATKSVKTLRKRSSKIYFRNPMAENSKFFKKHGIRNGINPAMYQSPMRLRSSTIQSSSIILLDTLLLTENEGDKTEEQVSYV

[6] = target: T3, Amine oxidase [flavin-containing] A (Homo sapiens, UniProt P21397); assay: Inhibition of MAO-A (unknown origin)
T3 sequence (P21397 whole entry): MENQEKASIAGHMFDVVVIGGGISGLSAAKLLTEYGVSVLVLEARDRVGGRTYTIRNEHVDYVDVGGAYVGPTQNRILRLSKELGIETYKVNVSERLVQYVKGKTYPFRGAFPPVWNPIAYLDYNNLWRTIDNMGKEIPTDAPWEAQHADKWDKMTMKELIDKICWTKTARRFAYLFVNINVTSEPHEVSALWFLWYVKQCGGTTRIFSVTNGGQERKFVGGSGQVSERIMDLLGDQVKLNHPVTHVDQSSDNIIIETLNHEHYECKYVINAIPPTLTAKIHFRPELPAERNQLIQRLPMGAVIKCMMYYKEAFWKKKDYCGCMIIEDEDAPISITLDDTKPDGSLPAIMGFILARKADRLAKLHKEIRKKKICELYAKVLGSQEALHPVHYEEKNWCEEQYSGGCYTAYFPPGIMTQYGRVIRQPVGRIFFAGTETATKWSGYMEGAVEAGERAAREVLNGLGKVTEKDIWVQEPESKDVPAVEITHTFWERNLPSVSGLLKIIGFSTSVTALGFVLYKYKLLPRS

Acetylcholinesterase [7] = target: T1, Acetylcholinesterase; assay: Inhibition of AChE (unknown origin) incubated for 40 mins by Ellman's method
[8] = target: T4, Gamma-aminobutyric acid receptor subunit alpha-5 (Homo sapiens, UniProt P31644); assay: Binding affinity to human recombinant GABAA alpha5 receptor assessed as inhibition constant incubated for 1 hrs by liquid scintillation counting analysis
T4 sequence (P31644 whole entry): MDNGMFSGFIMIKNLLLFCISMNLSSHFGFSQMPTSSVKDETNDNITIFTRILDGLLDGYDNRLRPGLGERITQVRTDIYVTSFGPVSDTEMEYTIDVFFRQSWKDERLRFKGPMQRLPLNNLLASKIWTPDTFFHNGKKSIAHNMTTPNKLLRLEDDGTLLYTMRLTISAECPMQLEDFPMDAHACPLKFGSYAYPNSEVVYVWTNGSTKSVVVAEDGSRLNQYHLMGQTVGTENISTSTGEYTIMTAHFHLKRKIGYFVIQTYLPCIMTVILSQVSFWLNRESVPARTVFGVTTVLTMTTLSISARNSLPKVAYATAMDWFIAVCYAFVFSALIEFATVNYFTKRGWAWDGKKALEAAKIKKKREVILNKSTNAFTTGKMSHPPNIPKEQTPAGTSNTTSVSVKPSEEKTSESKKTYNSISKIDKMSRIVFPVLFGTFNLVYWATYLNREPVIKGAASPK

[9] = target: Gamma-aminobutyric acid receptor subunit alpha-6 (Homo sapiens, UniProt Q16445); assay: Binding affinity to human recombinant GABAA alpha6 receptor assessed as inhibition constant incubated for 1 hrs by liquid scintillation counting analysis
Gamma-aminobutyric acid receptor subunit alpha-6, sequence (Q16445 whole entry): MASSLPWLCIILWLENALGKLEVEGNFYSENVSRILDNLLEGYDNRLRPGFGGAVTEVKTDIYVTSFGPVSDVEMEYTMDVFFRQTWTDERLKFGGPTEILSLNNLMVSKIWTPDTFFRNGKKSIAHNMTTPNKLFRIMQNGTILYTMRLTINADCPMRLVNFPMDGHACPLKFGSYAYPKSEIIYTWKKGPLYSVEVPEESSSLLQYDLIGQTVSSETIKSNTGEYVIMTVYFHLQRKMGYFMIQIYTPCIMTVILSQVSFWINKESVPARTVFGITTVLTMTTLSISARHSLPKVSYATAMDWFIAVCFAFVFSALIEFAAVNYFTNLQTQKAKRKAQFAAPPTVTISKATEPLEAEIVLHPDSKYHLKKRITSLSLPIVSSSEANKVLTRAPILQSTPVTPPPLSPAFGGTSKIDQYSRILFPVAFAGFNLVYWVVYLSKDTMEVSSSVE

[10] = target: T5, Gamma-aminobutyric acid receptor subunit alpha-3 (Homo sapiens, UniProt P34903); assay: Binding affinity to human recombinant GABAA alpha3 receptor assessed as inhibition constant incubated for 1 hrs by liquid scintillation counting analysis
T5 sequence (P34903 whole entry): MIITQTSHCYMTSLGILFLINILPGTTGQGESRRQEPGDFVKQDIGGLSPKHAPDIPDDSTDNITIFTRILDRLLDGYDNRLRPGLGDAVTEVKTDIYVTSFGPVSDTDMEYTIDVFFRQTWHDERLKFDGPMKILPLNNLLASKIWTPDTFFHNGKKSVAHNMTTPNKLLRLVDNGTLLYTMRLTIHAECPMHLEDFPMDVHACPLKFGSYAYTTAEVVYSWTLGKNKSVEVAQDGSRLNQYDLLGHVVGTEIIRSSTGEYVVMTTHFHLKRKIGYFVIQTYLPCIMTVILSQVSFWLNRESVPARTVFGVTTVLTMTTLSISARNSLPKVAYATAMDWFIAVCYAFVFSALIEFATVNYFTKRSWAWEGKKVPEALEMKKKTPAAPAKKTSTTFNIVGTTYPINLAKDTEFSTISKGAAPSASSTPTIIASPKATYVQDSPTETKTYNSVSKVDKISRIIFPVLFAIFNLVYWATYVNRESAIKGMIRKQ

[11] = target: T6, Gamma-aminobutyric acid receptor subunit alpha-1 (Homo sapiens, UniProt P14867); assay: Binding affinity to human recombinant GABAA alpha1 receptor assessed as inhibition constant incubated for 1 hrs by liquid scintillation counting analysis
T6 sequence (P14867 whole entry): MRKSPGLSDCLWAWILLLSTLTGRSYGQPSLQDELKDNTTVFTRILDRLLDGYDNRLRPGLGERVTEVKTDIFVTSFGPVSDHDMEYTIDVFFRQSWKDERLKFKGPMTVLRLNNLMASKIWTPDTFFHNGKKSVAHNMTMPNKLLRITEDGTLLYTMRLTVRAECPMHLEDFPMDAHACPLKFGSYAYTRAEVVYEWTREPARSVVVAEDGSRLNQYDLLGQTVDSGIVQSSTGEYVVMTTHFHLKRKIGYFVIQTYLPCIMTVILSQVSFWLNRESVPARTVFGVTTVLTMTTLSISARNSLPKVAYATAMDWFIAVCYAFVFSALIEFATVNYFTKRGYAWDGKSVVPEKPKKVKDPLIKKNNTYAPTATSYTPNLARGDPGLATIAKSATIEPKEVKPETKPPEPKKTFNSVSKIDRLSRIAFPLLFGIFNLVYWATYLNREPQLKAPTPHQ

[12] = target: T7, Gamma-aminobutyric acid receptor subunit alpha-2 (Homo sapiens, UniProt P47869); assay: Binding affinity to human recombinant GABAA alpha2 receptor assessed as inhibition constant incubated for 1 hrs by liquid scintillation counting analysis
T7 sequence (P47869 whole entry): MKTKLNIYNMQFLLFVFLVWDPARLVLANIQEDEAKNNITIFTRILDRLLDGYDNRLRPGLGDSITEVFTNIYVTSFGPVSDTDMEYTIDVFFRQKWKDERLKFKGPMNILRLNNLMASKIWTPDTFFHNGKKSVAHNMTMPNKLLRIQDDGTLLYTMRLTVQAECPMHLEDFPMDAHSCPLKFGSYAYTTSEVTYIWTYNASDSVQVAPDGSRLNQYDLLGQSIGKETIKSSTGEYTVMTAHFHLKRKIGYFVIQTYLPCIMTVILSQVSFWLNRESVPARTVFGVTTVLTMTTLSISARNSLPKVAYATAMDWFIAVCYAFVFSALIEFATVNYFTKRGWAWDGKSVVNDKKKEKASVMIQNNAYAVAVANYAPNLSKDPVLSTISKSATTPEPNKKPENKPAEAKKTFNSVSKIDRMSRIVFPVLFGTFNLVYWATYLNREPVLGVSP

Acetylcholinesterase [13] = target: T1, Acetylcholinesterase; assay: Inhibition of AChE (unknown origin)
Cholinesterase [14] = target: T2, Cholinesterase; assay: Inhibition of BuChE (unknown origin)

## COC(=O)C1=CO[C@@H](C)[C@H]2C[n+]3ccc4c([nH]c5ccccc54)c3C[C@H]12
Acetylcholinesterase [1]
  IC50: 0.78 µM

## COCc1c(C(=O)OC(C)C)ncc2[nH]c3ccc4nc5c(nc4c3c12)CCCC5
[2]
  IC50: 0.8 nM

## Cc1cc2cc3n(c(=O)c2cn1)CCc1c-3[nH]c2ccccc12
Acetylcholinesterase [1]
  IC50: 22 µM
Cholinesterase [3]
  IC50: 1000 nM

## COc1ccc(CC2NCCc3c2[nH]c2cccc(SC)c32)cc1OC (stereo unspecified)
[4]
  Ki: 0.1 nM
[5]
  Kb: < 0.3 nM

## CCCn1c2cc(OCc3cn(Cc4ccccc4Cl)nn3)ccc2c2ccnc(C)c21
[6]
  IC50: 260 nM

## C=CCOc1ccc2c(c1)[nH]c1c(C)nccc12
[6]
  IC50: 5 nM

## Cc1ccc([N+]2=Cc3c(c4ccccc4n3C)CC2)cc1
Acetylcholinesterase [7]
  IC50: 1500 nM

## COCc1c(C(=O)OC(C)C)ncc2[nH]c3ccc4nccnc4c3c12
[2]
  IC50: 0.8 nM

## Cc1nccc2c1[nH]c1cc(OCCCC(F)(F)F)ccc12
[6]
  IC50: 5 nM

## C=C[C@H]1[C@@H](/C(=C/O)C(=O)OC)C[C@H]2c3[nH]c4ccccc4c3CCN2[C@H]1O[C@@H]1O[C@H](CO)[C@@H](O)[C@H](O)[C@H]1O
Acetylcholinesterase [1]
  IC50: 1.9 µM

## Clc1ccc2c(c1)[nH]c1c2ncc2[nH]c3ccccc3c21
[8]
  Ki: 210 nM
[9]
  Ki: > 10 µM
[2]
  IC50: 4 nM
[10]
  Ki: 24 nM
[11]
  Ki: 4 nM
[12]
  Ki: 12 nM

## COc1ccc2c(c1)[nH]c1c2ncc2[nH]c3ccccc3c21
[8]
  Ki: 230 nM
[9]
  Ki: > 10 µM
[2]
  IC50: 4 nM
[10]
  Ki: 11 nM
[11]
  Ki: 3 nM
[12]
  Ki: 12 nM

## C=C[C@H]1C[N+]2=C(C[C@@H]1/C(=C\OC)C(=O)OC)c1[nH]c3cccc(OC)c3c1CC2
Acetylcholinesterase [1]
  IC50: 4.1 µM

## CN1c2ccc(OCc3ccccc3)cc2C(=O)N2CCc3c([nH]c4ccccc34)C21 (stereo unspecified)
Acetylcholinesterase [1]
  IC50: 3 µM
Cholinesterase [3]
  IC50: 880 nM

## Cn1c2ccccc2c2cc[n+](-c3ccc(I)cc3)cc21
Acetylcholinesterase [7]
  IC50: 240 nM
Acetylcholinesterase [13]
  IC50: 240 nM and 300 nM
Cholinesterase [14]
  IC50: 32 µM and 116 µM

## Brc1ccc2[nH]c3cnc4c5ccccc5[nH]c4c3c2c1
[2]
  IC50: 4 nM

## c1ccc2c(CC3NCCc4c3[nH]c3ccccc43)cccc2c1 (stereo unspecified)
[4]
  Ki: 0.4 nM
[5]
  Kb: 0.4 nM

## COc1ccc2c3ccnc(C)c3n(C)c2c1
[6]
  IC50: 11 nM

## Cn1c2c(c3ccccc31)CC[N+](c1ccc(I)cc1)=C2
Acetylcholinesterase [7]
  IC50: 1500 nM

## COCc1c(C(=O)OC(C)C)ncc2[nH]c3ccc4oc(C(C)C)cc4c3c12
[2]
  IC50: 0.8 nM

## Cc1ccc(-[n+]2ccc3c4ccccc4n(C)c3c2)cc1
Acetylcholinesterase [7]
  IC50: 240 nM
Acetylcholinesterase [13]
  IC50: 290 nM and 300 nM
Cholinesterase [14]
  IC50: 32 µM and 116 µM

## COc1ccc(CC2NCCc3c2[nH]c2cccc(C)c32)cc1OC (stereo unspecified)
[4]
  Ki: 0.1 nM
[5]
  Kb: 0.08 nM
